Assay results as given in patent US9926529B2, “Derivation of neural stem cells and dopaminergic neurons from human pluripotent stem cells” (International Stem Cell Corporation, priority 2012, dated 2018).

Test system: hPSC-NSCs
Assay: Dopamine ELISA of conditioned medium (dopamine release)
Type: cell-based, human
Procedure: To obtain DA neurons, hPSC-NSC were first primed into DA precursors with 100 ng/mL FGF8 and 2 μM Purmorphamine for 7 days and then used to screen for small molecules that induce terminal dopaminergic differentiation (FIG. 6A). The DA precursors were plated at 2000 cells/well of a 96-well plate and treated with a small molecule library (Tocris 1120 biologically active compounds) at 2.5 μM for two weeks (FIG. 6A). Dopaminergic differentiation was assessed by neurite outgrowth and ELISA analysis for dopamine release (FIG. 6A). From this screen, guggulsterone (GS), a naturally occurring steroid, was identified among the best inducers of dopaminergic differentiation (FIG. 6A). After 30 days of differentiation, GS-treated neurons appeared mature with elaborate neurite extensions. […] Spontaneous action potentials were recorded in whole cultures of GS-treated neurons using a microelectrode array (MEA) system (FIG. 6J). […]
Conditioned medium from the top neurite inducers (Table 1) (wells containing the highest density of neurites compare to control 0.1% DMSO treated) were collected and analyzed using a dopamine ELISA assay (Cosmo Bio). […] Supernatant was then collected and analyzed for quantitative determination of dopamine using a commercial dopamine ELISA assay kit (CusaCosmo Bio). Data analysis was performed using the microtiter plate reader (BIO-TEK Synergy 2). […]

## C/C=C1\C(=O)C[C@H]2[C@@H]3CCC4=CC(=O)CC[C@]4(C)[C@H]3CC[C@]12C [Guggulsterone]
control: NSCs 1 week FGF8 and purmorphamine, 2 weeks 0.1% DMSO instead of GS
  increase in dopamine secretion compared to control cells (ELISA): five-fold increase
Treated hPSC-NSCs, compared among top hits
  levels of Dopamine spontaneous release: highest levels
